Reference: US10988465B2, “CXCR4 inhibitors and uses thereof” (X4 Pharmaceuticals, Inc., priority 2016, dated 2021)

How the values were obtained:
in vitro = settings: human, Caco-2, pH 7.4
How it was run: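 Caco-2 monolayers, checked by TEER with Lucifer yellow as marker, were dosed with 10 μM compound in HBSS pH 7.4 in A-to-B and B-to-A directions. Incubation was 90 min at 37° C, in duplicate. Samples were quantified by LC-MS/MS and Papp calculated.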

[1] = biological target: T1, CXCR-4 transfected U87 cell line (U87.CXCR4) (Homo sapiens, UniProt P61073); assay: Intracellular CXCL-12-induced calcium mobilization assay (FLIPR); assay type: cell-based; settings: U87.CXCR4 cells; CXCL-12 25-50 ng/mL; compound added 15 min before; read-out: IC50 CXCL-12 Ca^2+ flux U87.CXCR4+
T1 construct: expressed in transfected cells; host or cells: U87 (U87.CXCR4)
T1 sequence (P61073 whole entry): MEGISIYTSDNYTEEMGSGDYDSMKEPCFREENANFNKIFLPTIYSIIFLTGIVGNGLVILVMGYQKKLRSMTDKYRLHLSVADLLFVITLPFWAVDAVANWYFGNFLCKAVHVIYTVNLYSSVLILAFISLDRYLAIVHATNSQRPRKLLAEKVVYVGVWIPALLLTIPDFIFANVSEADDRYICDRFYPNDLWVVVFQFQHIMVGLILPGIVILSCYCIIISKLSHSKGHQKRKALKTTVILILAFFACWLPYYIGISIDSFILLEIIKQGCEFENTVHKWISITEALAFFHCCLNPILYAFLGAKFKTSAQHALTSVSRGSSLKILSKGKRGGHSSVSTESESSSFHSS
How it was run: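 U87 cells stably expressing human CXCR4, loaded with Fluo-2 AM (4 μM final) for 45 min at 37 °C in HBSS/20 mM HEPES/0.2% BSA, pH 7.4. Calcium flux triggered by CXCL-12 (25-50 ng/mL) was followed by FLIPR fluorescence over time at 37 °C.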

[2] = biological target: T2, Jurkat cells expressing CXCR4 (Homo sapiens, UniProt P61073); assay: Chemokine (CXCL12-AF647) binding inhibition assay; settings: CXCL12-AF647 25 ng/mL, read-out: IC50 CXCL-12 binding Jurkat
T2 construct: endogenous in cells; host or cells: Jurkat
T2 sequence (P61073 whole entry): as above
How it was run: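 Cells in HBSS, 20 mM HEPES, 0.2% BSA, pH 7.4, preincubated 15 min at room temperature with compound, then 25 ng/mL CXCL12-AF647 for 30 min. After washing and paraformaldehyde fixation, bound ligand read by flow cytometry; percent inhibition calculated from MFI relative to unlabeled and ligand-only controls.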

[3] = Mouse brain uptake assay (MBUA), 3 mg/kg IV, 0-1 h, 3 time points; assay type: in vivo, male CD1 mice; settings: for Kp / clearance / half-life / AUC(0-t) / Kp uu: male; for Kp: CD1, mouse, brain/plasma, iv, 3 mg/kg; for clearance / half-life: CD1, plasma, 3 time points; for clearance / half-life / AUC(0-t) / Kp uu / fraction unbound: mouse; for clearance / half-life / AUC(0-t) / Kp uu: 3 mg/kg IV, 0-1 h; for half-life: read-out: t½ (converted); for AUC(0-t) / Kp uu: CD1; for Kp uu: unbound brain/unbound plasma, read-out: Kp, uu
Method: (§1) Example 38: Pharmacokinetics and Brain Penetration Experiment to Determine Brain and Plasma Concentrations of Compounds after IV Administration to Male CD1 Mice
(§2) The study design (9 animals) consisted of administrating the drug (IV: 3 mg/kg (5 mL/kg) via tail vein injection) and collecting samples at terminal bleeding for plasma and brain at 0.083, 0.5 and 1 h. The IV dosing solution was prepared in 50 mM citrate buffer (pH 4.0) at 0.6 mg/mL. The blood collection was performed as follows: the animal was restrained manually and approximately 150 μL blood/time point was collected into a dipotassium EDTA tube via retro orbital puncture under anesthesia with isoflurane. The blood sample was put on ice and centrifuged to obtain a plasma sample (2000 g, 5 min under 4° C.) within 15 minutes. The brain collection was performed as follows: a mid-line incision was made in the animal's scalp and the skin was retracted. Using small bone cutters and rongeurs, the skull overlying the brain was removed. The brain was removed using a spatula and the brain rinsed with cold saline. The brain was placed in screw-top tubes, and the tubes were stored at −70° C. until analysis.
(§3) An aliquot of 30 μL sample was added to 150 μL MeCN containing 50 ng/mL IS (Dexamethasone). The mixture was vortexed for 5 min and centrifuged at 14,000 rpm for 5 min. An aliquot of 5 μL supernatant was injected for LC-MS/MS analysis.
(§4) An aliquot of 30 μL brain homogenate (brain:PBS=1:3, w/v) sample was added to 150 μL IS in MeCN (Dexamethasone, 50 ng/mL). The mixture was vortexed for 5 min and centrifuged at 14,000 rpm for 5 min. An aliquot of 5 μL supernatant was injected for LC-MS/MS analysis.
(§5) The sample analysis was performed on LCMS/MS-003 (API4000, triple quadruple) under the following conditions: positive ion, ESI, MRM detection using dexamethasone as internal standard. HPLC conditions: mobile phase A: H2O (0.025% formic acid (FA) with 1 mM NH4OAc); mobile phase B: MeOH (0.025% FA with 1 mM NH4OAc) on Waters X-Bridge C18 (2.1×50 mm, 2.5 μm) column at 60° C.

[4] = Mouse brain uptake assay (MBUA), 3 mg/kg IV, 0-24 h, 4 time points; assay type: in vivo, male CD1 mice; settings: for Kp / clearance / half-life / AUC(0-t) / Kp uu: male; for Kp: CD1, mouse, brain/plasma, iv, 3 mg/kg; for clearance / half-life: CD1, plasma, 4 time points; for clearance / half-life / AUC(0-t) / Kp uu / fraction unbound: mouse; for clearance / half-life / AUC(0-t) / Kp uu: 3 mg/kg IV, 0-24 h; for half-life: read-out: t½ (converted); for AUC(0-t) / Kp uu: CD1; for Kp uu: unbound brain/unbound plasma
Method: as §1, §2, §3, §4, §5
A similar experiment was performed with 4 time points taken from 0-24 h.

[5] = fraction unbound to brain proteins, read-out: Fu (b) %
[6] = fraction unbound to plasma proteins, read-out: Fu (p) %

Row | SMILES | Papp A→B at 90 min, 10 μM (in vitro) [×10⁻⁶ cm/s] | Papp B→A at 90 min, 10 μM (in vitro) [×10⁻⁶ cm/s] | efflux ratio at 90 min, 10 μM (in vitro) | IC50 [1] [nM] | IC50 [2] [nM] | Kp [4] | clearance [4] [mL/min/kg] | half-life [4] [min] | AUC(0-t) ([4]; brain, read-out: AUClast (b)) [ng·h/mL] | AUC(0-t) ([4]; plasma, read-out: AUClast (P)) [ng·h/mL] | Kp uu [4] | fraction unbound [4, 5] | fraction unbound [4, 6] | other results
1 | CN1CCN(c2cccc3nc([C@H]4CCC[C@@H](c5ncccc5Cl)N4C)[nH]c23)CC1 [I-9, 2-((2R,6S)-6-(3-chloropyridin-2-yl)-1-methylpiperidin-2-yl)-7-(4-methylpiperazin-1-yl)-1H-benzo[d]imidazole] | 10 to 30 | 10 to 30 | 0.1 to 10 | 100 to 1000 | 0.01 to 100 | – | – | – | – | – | – | – | – | Kp [3]: 2.51; clearance [3]: 77.2 mL/min/kg; half-life [3]: 16 min; AUC(0-t) ([3]; brain, read-out: AUClast (b)): 1510 ng·h/mL; AUC(0-t) ([3]; plasma, read-out: AUClast (P)): 601 ng·h/mL; Kp uu [3]: 0.73; fraction unbound [3, 5]: 0.016; fraction unbound [3, 6]: 0.055
2 | Cc1cccnc1[C@@H]1CCC[C@H](c2nc3ccccc3n2CC2CCN(C)CC2)N1C [I-15, 2-((2R,6S)-1-methyl-6-(3-methylpyridin-2-yl)piperidin-2-yl)-1-((1-methylpiperidin-4-yl)methyl)-1H-benzo[d]imidazole] | 0.1 to 10 | 10 to 30 | 0.1 to 10 | 0.01 to 100 | 0.01 to 100 | – | – | – | – | – | – | – | – | Kp [3]: 0.34; clearance [3]: 282 mL/min/kg; half-life [3]: 17.8 min; AUC(0-t) ([3]; brain, read-out: AUClast (b)): 55.3 ng·h/mL; AUC(0-t) ([3]; plasma, read-out: AUClast (P)): 161 ng·h/mL; Kp uu [3]: 0.02; fraction unbound [3, 5]: 0.004; fraction unbound [3, 6]: 0.076
3 | Cc1cccnc1[C@@H]1CCC[C@H](c2nc3cccc(N4CC5CCC(C4)N5C)c3[nH]2)N1C [I-56] | 10 to 30 | 10 to 30 | 0.1 to 10 | 0.01 to 100 | 0.01 to 100 | 1.94 | 32.3 | 184 | 3000 | 1540 | 0.35 | 0.013 | 0.073 | –
4 | Cc1cccnc1[C@@H]1CCC[C@H](c2nc3cccc(N4CCN5CCCC5C4)c3[nH]2)N1C (stereo partly shown) [I-66] | 10 to 30 | 10 to 30 | 0.1 to 10 | 0.01 to 100 | 0.01 to 100 | 44.5 | 212 | 18.6 | 9320 | 209 | – | – | – | –
5 | Cc1cc(F)cnc1[C@@H]1CCC[C@H](c2nc3cccc(N4CCN(C)CC4)c3[nH]2)N1C [I-69] | 10 to 30 | 10 to 30 | 0.1 to 10 | 0.01 to 100 | 0.01 to 100 | 15 | 168 | 16.9 | 4080 | 272 | 1.98 | 0.016 | 0.121 | –
6 | Cc1cccnc1[C@@H]1CCC[C@H](c2nc3cccc(N4CCN(C5CC5)CC4)c3[nH]2)N1C [I-76] | > 30 | 10 to 30 | 0.1 to 10 | 0.01 to 100 | 0.01 to 100 | 57.2 | 46.5 | 11.6 | 59800 | 1050 | – | – | – | –
7 | COc1ccnc([C@@H]2CCC[C@H](c3nc4cccc(N5CCN(C)CC5)c4[nH]3)N2C)c1C [I-81] | 0.1 to 10 | 0.1 to 10 | 0.1 to 10 | 0.01 to 100 | 0.01 to 100 | 7.96 | 33.3 | 286 | 11700 | 1470 | 1.01 | 0.019 | 0.149 | –
